Laboratory results reported in PubChem BioAssay (NCI).
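Grown in 96-well plates, cells were treated for 48 hours with each compound at five concentrations. Insufficient inhibition: endpoint recorded as highest concentration tested. The concentration for full growth arrest is given as TGI.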 Where a SMILES comes first, the peptide text is derived from it. [ ]: non-standard residue; d: D form. The star is where a group is joined. mTyr = N[CH](Cc1cccc(O)c1)C(=O)O; Cbz = O=C(OCc1ccccc1)*; OBn = c1ccc(CO*)cc1

Key:
Experiment in all cases: NCI tumour cell line growth inhibition, 48 h
SK-MEL-2 melanoma = tested on: SK-MEL-2 melanoma
OVCAR-3 ovarian = tested on: OVCAR-3 ovarian
MOLT-4 leukemia = tested on: MOLT-4 leukemia
SN12C renal = tested on: SN12C renal
UO-31 renal = tested on: UO-31 renal
BT-549 breast = tested on: BT-549 breast
LOX IMVI melanoma = tested on: LOX IMVI melanoma
UACC-62 melanoma = tested on: UACC-62 melanoma
OVCAR-8 ovarian = tested on: OVCAR-8 ovarian
NCI-H226 lung = tested on: NCI-H226 lung

Cc1ccc2c(=O)cc(-c3ccc(-c4ccccc4)s3)[nH]c2n1
TGI (SK-MEL-2 melanoma): > 100 µM
TGI (OVCAR-3 ovarian): > 100 µM
TGI (MOLT-4 leukemia): > 78.9 µM
TGI (SN12C renal): > 100 µM
TGI (UO-31 renal): 0.219 µM
TGI (BT-549 breast): > 100 µM
TGI (LOX IMVI melanoma): > 100 µM
TGI (UACC-62 melanoma): > 100 µM
TGI (OVCAR-8 ovarian): > 100 µM
TGI (NCI-H226 lung): > 100 µM

Cc1ccc2nc(NC(=O)/C(Cc3nc4ccc(Cl)cc4[nH]c3=O)=N\NC(C)(C)C)sc2c1
TGI (SK-MEL-2 melanoma): > 100 µM
TGI (OVCAR-3 ovarian): > 100 µM
TGI (MOLT-4 leukemia): > 100 µM
TGI (SN12C renal): > 100 µM
TGI (UO-31 renal): > 100 µM
TGI (BT-549 breast): > 100 µM
TGI (LOX IMVI melanoma): > 100 µM
TGI (UACC-62 melanoma): > 100 µM
TGI (OVCAR-8 ovarian): > 100 µM
TGI (NCI-H226 lung): 91.3 µM

CCOc1ccc(-n2nnc3c(N)nc(N)nc32)cc1
TGI (SK-MEL-2 melanoma): > 100 µM
TGI (OVCAR-3 ovarian): > 100 µM
TGI (MOLT-4 leukemia): > 100 µM
TGI (SN12C renal): > 100 µM
TGI (BT-549 breast): > 100 µM
TGI (LOX IMVI melanoma): > 100 µM
TGI (UACC-62 melanoma): > 100 µM
TGI (OVCAR-8 ovarian): > 100 µM
TGI (NCI-H226 lung): > 100 µM

O=C1NC(=S)N(c2ccccc2)C1=O
TGI (SK-MEL-2 melanoma): > 100 µM
TGI (MOLT-4 leukemia): > 100 µM
TGI (SN12C renal): > 100 µM
TGI (UO-31 renal): > 100 µM
TGI (LOX IMVI melanoma): > 100 µM
TGI (UACC-62 melanoma): > 100 µM
TGI (OVCAR-8 ovarian): > 100 µM
TGI (NCI-H226 lung): > 100 µM

CC(C)CN=C(N)N=C(N)N
TGI (SK-MEL-2 melanoma): > 100 µM
TGI (OVCAR-3 ovarian): > 100 µM
TGI (MOLT-4 leukemia): > 100 µM
TGI (SN12C renal): > 100 µM
TGI (UO-31 renal): > 100 µM
TGI (BT-549 breast): > 100 µM
TGI (LOX IMVI melanoma): > 100 µM
TGI (UACC-62 melanoma): > 100 µM
TGI (OVCAR-8 ovarian): > 100 µM
TGI (NCI-H226 lung): > 100 µM

CC1(O)OC(=O)C2=C1CCC1C2CCC2(C)C(O)CCC12 (stereo not given)
TGI (OVCAR-3 ovarian): > 100 µM
TGI (SN12C renal): > 100 µM
TGI (UO-31 renal): > 100 µM
TGI (BT-549 breast): > 100 µM
TGI (LOX IMVI melanoma): > 100 µM
TGI (UACC-62 melanoma): > 100 µM
TGI (OVCAR-8 ovarian): > 100 µM
TGI (NCI-H226 lung): > 100 µM

O=C(CSC1=NCCN1)Nc1ccccc1
TGI (SK-MEL-2 melanoma): 44.5 µM
TGI (OVCAR-3 ovarian): 51.4 µM
TGI (MOLT-4 leukemia): > 100 µM
TGI (SN12C renal): 41.1 µM
TGI (UO-31 renal): > 100 µM
TGI (BT-549 breast): 59.5 µM
TGI (LOX IMVI melanoma): 39.2 µM
TGI (UACC-62 melanoma): 52.4 µM
TGI (OVCAR-8 ovarian): > 100 µM

Nc1ccc(C(=O)NN2C(=O)C(Cl)C2c2ccccc2)cc1 (stereo not given)
TGI (SK-MEL-2 melanoma): > 100 µM
TGI (OVCAR-3 ovarian): > 100 µM
TGI (MOLT-4 leukemia): > 100 µM
TGI (SN12C renal): > 100 µM
TGI (UO-31 renal): > 100 µM
TGI (LOX IMVI melanoma): > 100 µM
TGI (UACC-62 melanoma): > 100 µM
TGI (OVCAR-8 ovarian): > 100 µM
TGI (NCI-H226 lung): > 100 µM

O=C(Nc1cccc(F)c1)c1cc2ccc(O)cc2oc1=Nc1ccccc1F
TGI (SK-MEL-2 melanoma): 18.7 µM
TGI (OVCAR-3 ovarian): 14.7 µM
TGI (MOLT-4 leukemia): 24.7 µM
TGI (SN12C renal): 22.5 µM
TGI (UO-31 renal): 14.2 µM
TGI (BT-549 breast): 8.61 µM
TGI (LOX IMVI melanoma): 7.15 µM
TGI (UACC-62 melanoma): 24 µM
TGI (OVCAR-8 ovarian): 5.85 µM

COc1ccc2c(c1)CCN1CCc3cc(OC)c(OC)cc3CC21 (stereo not given)
TGI (MOLT-4 leukemia): > 100 µM
TGI (SN12C renal): > 100 µM
TGI (UO-31 renal): > 100 µM
TGI (BT-549 breast): 55.6 µM
TGI (LOX IMVI melanoma): > 100 µM
TGI (UACC-62 melanoma): > 100 µM
TGI (OVCAR-8 ovarian): > 100 µM
TGI (NCI-H226 lung): > 100 µM

COC(=O)c1c(O)ccc2c1C1(Cc3ccccc3C1=O)C(O)O2 (stereo not given)
TGI (SK-MEL-2 melanoma): > 100 µM
TGI (OVCAR-3 ovarian): 43.9 µM
TGI (MOLT-4 leukemia): 21.5 µM
TGI (SN12C renal): 86.2 µM
TGI (UO-31 renal): 85 µM
TGI (BT-549 breast): 37 µM
TGI (LOX IMVI melanoma): > 100 µM
TGI (OVCAR-8 ovarian): 36.7 µM
TGI (NCI-H226 lung): 35.5 µM

FC(F)(F)c1ccc2nc(Sc3ccccn3)cnc2c1
TGI (SK-MEL-2 melanoma): 31.1 µM
TGI (MOLT-4 leukemia): > 100 µM
TGI (SN12C renal): > 100 µM
TGI (UO-31 renal): > 100 µM
TGI (BT-549 breast): 68.1 µM
TGI (LOX IMVI melanoma): > 100 µM
TGI (UACC-62 melanoma): 88.3 µM
TGI (OVCAR-8 ovarian): > 100 µM
TGI (NCI-H226 lung): 60.2 µM

COc1cc([C@@H]2c3cc(O)c(OC)cc3C=C(C(N)=O)[C@H]2C(N)=O)ccc1O
TGI (OVCAR-3 ovarian): > 100 µM
TGI (MOLT-4 leukemia): > 100 µM
TGI (SN12C renal): > 100 µM
TGI (UO-31 renal): > 100 µM
TGI (LOX IMVI melanoma): > 100 µM
TGI (OVCAR-8 ovarian): > 100 µM
TGI (NCI-H226 lung): > 100 µM

CCNC1=C(NC(=O)CC)C(=O)c2ccccc2C1=O
TGI (OVCAR-3 ovarian): > 100 µM
TGI (MOLT-4 leukemia): > 100 µM
TGI (SN12C renal): > 100 µM
TGI (BT-549 breast): > 100 µM
TGI (UACC-62 melanoma): > 100 µM
TGI (OVCAR-8 ovarian): > 100 µM
TGI (NCI-H226 lung): > 100 µM

CCC1(COC(NC(=O)c2ccccc2)(C(F)(F)F)C(F)(F)F)COC1
TGI (SK-MEL-2 melanoma): > 100 µM
TGI (MOLT-4 leukemia): > 100 µM
TGI (SN12C renal): > 100 µM
TGI (UO-31 renal): > 100 µM
TGI (BT-549 breast): > 100 µM
TGI (LOX IMVI melanoma): > 100 µM
TGI (OVCAR-8 ovarian): > 100 µM

CC(C)[C@@H]1ON1C(C)c1ccccc1 (stereo not given in full)
TGI (OVCAR-3 ovarian): > 100 µM
TGI (MOLT-4 leukemia): > 100 µM
TGI (SN12C renal): > 100 µM
TGI (UO-31 renal): > 100 µM
TGI (BT-549 breast): > 100 µM
TGI (LOX IMVI melanoma): > 100 µM
TGI (UACC-62 melanoma): > 100 µM
TGI (OVCAR-8 ovarian): > 100 µM
TGI (NCI-H226 lung): > 100 µM

CN(CCCNC(=O)c1nn(-c2ccc(Cl)cc2Cl)c2c1Cc1ccccc1-2)CCCNC(=O)c1nn(-c2ccc(Cl)cc2Cl)c2c1Cc1ccccc1-2
TGI (SK-MEL-2 melanoma): 3.2 µM
TGI (OVCAR-3 ovarian): 3.09 µM
TGI (MOLT-4 leukemia): 3.98 µM
TGI (SN12C renal): 3.04 µM
TGI (UO-31 renal): 3.59 µM
TGI (BT-549 breast): 3.18 µM
TGI (LOX IMVI melanoma): 3.26 µM
TGI (UACC-62 melanoma): 2.92 µM
TGI (OVCAR-8 ovarian): 3.46 µM

COC(=O)C(Cc1cccc(O)c1)NC(=O)C(CC(=O)OCc1ccccc1)NC(=O)OCc1ccccc1 (stereo not given) (Cbz-Asp(OBn)-[mTyr]-OMe; configuration not given here)
TGI (SK-MEL-2 melanoma): > 100 µM
TGI (MOLT-4 leukemia): > 100 µM
TGI (SN12C renal): > 100 µM
TGI (UO-31 renal): > 100 µM
TGI (BT-549 breast): > 100 µM
TGI (UACC-62 melanoma): > 100 µM
TGI (OVCAR-8 ovarian): > 100 µM
TGI (NCI-H226 lung): > 100 µM

COC(=O)c1c(OC(C)=O)ccc2c1c1c(OC(C)=O)c3ccccc3c(OC(C)=O)c1n2Cc1ccccc1
TGI (SK-MEL-2 melanoma): 6.81 µM
TGI (OVCAR-3 ovarian): 3.52 µM
TGI (MOLT-4 leukemia): > 50 µM
TGI (SN12C renal): > 50 µM
TGI (UO-31 renal): 24.7 µM
TGI (BT-549 breast): 28.8 µM
TGI (UACC-62 melanoma): 20.3 µM
TGI (OVCAR-8 ovarian): > 50 µM
TGI (NCI-H226 lung): > 50 µM

CC1=NN(C(=O)CSc2nc3ccc(I)cc3c(=O)n2Cc2ccccc2)C(=O)C1
TGI (SK-MEL-2 melanoma): 41 µM
TGI (OVCAR-3 ovarian): 54.9 µM
TGI (MOLT-4 leukemia): 67.8 µM
TGI (SN12C renal): > 100 µM
TGI (LOX IMVI melanoma): > 100 µM
TGI (UACC-62 melanoma): > 100 µM
TGI (OVCAR-8 ovarian): > 100 µM
TGI (NCI-H226 lung): > 100 µM

O=C(CC(=O)Nc1ccccc1)N/N=C/c1cc(N=Nc2ccc(Br)cc2)ccc1O
TGI (MOLT-4 leukemia): > 10 µM
TGI (SN12C renal): > 10 µM
TGI (UO-31 renal): 7.93 µM
TGI (BT-549 breast): > 10 µM
TGI (LOX IMVI melanoma): > 10 µM
TGI (UACC-62 melanoma): > 10 µM
TGI (OVCAR-8 ovarian): > 10 µM

CCN(CC)Cc1sc2nc3ccccc3n2c1-c1ccc(OC)cc1
TGI (SK-MEL-2 melanoma): > 100 µM
TGI (OVCAR-3 ovarian): > 100 µM
TGI (MOLT-4 leukemia): > 100 µM
TGI (UO-31 renal): > 100 µM
TGI (BT-549 breast): > 100 µM
TGI (LOX IMVI melanoma): > 100 µM
TGI (UACC-62 melanoma): > 100 µM
TGI (OVCAR-8 ovarian): > 100 µM
TGI (NCI-H226 lung): 71.4 µM

CC(C)(C)OC(=O)NCCC1CN(C(=O)c2ccccc2)c2ccccc21 (stereo not given)
TGI (SK-MEL-2 melanoma): 91.2 µM
TGI (OVCAR-3 ovarian): 65.3 µM
TGI (MOLT-4 leukemia): 74.4 µM
TGI (UO-31 renal): 76.1 µM
TGI (BT-549 breast): 66.5 µM
TGI (UACC-62 melanoma): 42.3 µM
TGI (OVCAR-8 ovarian): 67.8 µM
